Assay results taken from US20250186408A1, “TREATMENT OF PHARMACORESISTANT EPILEPSY” (Katholieke Universiteit Leuven, priority 2021, published 2025).
Read-outs that look alike come from different tables or passages of the source.

Legend:
male NMRI mice = experiment: Mouse 6-Hz (44 mA) psychomotor seizure model; type: in vivo; settings: 30 min before stimulation; for dose-response relationship (in words): i.p.
Experimental: The antiseizure activity of compounds was investigated in the mouse 6-Hz (44 mA) psychomotor seizure model as described before (27). […] Seizure behaviour was video recorded and seizure durations were determined by blinded video analysis by experienced researchers, familiar with the different seizure characteristics. Data are expressed as mean±SD.
The 6-Hz 44 mA model is an acute model of pharmacoresistant focal impaired awareness seizures, previously referred to as complex partial or psychomotor seizures that are induced by a low frequency, long duration corneal electrical stimulation (6 Hz, 0.2 ms rectangular pulse width, 3 s duration, 44 mA). Seizures are typically characterized by a clonic phase and stereotypical automatic behaviours like stun, forelimb clonus, Straub tail and vibrissae twitching.

NMDAR (1A/2B) = NMDAR (1A/2B) (Homo sapiens, UniProt Q05586+Q13224); experiment: Ion Channel NMDAR (1A/2B) Opener; type: cell-based; settings: for Emax: Ion Channel NMDAR (1A/2B) Opener, read-out: Max response
Chain of NMDAR (1A/2B) (Q13224 27-1484, other chains not shown): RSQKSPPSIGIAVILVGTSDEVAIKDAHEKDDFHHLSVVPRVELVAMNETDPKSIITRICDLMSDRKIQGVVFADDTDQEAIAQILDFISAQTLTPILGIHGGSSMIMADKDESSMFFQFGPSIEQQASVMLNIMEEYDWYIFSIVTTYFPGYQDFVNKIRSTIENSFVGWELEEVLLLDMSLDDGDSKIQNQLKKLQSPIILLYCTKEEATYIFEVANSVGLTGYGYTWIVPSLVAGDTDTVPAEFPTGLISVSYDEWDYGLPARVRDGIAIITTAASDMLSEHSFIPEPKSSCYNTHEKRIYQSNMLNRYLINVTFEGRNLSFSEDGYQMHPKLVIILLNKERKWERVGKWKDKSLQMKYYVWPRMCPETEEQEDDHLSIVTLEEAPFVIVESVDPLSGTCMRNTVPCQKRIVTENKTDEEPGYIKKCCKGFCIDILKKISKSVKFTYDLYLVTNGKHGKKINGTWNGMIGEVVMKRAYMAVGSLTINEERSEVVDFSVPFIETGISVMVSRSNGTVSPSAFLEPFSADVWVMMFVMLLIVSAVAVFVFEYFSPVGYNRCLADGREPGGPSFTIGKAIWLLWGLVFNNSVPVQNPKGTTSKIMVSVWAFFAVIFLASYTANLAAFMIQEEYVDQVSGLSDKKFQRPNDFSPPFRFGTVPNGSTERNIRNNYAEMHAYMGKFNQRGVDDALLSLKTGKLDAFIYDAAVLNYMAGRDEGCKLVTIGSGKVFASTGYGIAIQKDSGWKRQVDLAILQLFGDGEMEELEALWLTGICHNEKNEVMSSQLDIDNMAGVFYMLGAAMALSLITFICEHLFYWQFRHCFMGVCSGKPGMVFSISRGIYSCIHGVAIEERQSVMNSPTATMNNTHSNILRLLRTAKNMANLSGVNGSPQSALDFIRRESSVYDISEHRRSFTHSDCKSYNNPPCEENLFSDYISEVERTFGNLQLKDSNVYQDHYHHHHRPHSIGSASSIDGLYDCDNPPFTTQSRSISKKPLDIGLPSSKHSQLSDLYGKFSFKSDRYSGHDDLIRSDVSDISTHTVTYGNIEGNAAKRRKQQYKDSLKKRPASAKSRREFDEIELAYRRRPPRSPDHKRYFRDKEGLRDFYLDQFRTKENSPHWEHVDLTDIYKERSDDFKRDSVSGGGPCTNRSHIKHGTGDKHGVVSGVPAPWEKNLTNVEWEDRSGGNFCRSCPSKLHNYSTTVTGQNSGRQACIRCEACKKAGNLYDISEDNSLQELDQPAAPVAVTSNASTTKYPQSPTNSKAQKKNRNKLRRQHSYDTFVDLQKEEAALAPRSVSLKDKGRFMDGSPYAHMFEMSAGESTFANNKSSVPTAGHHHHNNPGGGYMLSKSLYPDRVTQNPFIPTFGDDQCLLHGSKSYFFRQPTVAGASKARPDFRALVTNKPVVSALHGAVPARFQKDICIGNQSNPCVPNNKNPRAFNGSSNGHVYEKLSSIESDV

COX2 = target: T1, COX2 (Homo sapiens, UniProt P35354); experiment: Enzymatic COX2 Inhibitor; type: biochemical; settings: for IC50: read-out: RC50, result type IC50; for Emax: read-out: Max response
T1 construct: purchased BPS Bioscience
T1 sequence (P35354 18-604): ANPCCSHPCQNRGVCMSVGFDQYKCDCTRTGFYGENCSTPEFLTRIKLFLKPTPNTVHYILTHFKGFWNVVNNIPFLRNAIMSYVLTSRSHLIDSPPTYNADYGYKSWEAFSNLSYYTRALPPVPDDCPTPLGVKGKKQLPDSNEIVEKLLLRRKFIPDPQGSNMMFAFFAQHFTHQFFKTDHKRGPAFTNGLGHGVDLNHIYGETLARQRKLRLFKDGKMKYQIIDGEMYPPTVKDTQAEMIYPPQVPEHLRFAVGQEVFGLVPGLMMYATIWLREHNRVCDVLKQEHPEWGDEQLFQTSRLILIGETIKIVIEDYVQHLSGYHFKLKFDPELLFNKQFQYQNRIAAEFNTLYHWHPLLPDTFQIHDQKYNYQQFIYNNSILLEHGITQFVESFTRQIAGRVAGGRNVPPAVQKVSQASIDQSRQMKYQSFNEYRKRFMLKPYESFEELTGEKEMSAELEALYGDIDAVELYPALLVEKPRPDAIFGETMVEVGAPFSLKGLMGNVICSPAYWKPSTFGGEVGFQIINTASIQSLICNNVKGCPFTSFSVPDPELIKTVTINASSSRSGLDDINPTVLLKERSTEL
Experimental: Enzyme preparations were sourced from various vendors-AChE (R&D Systems), COX1 and COX2 (BPS Bioscience), MAOA (Sigma), PDE3A and PDE4D2 (Signal Chem). AChE: enzyme and test compound were pre-incubated for 15 min at RT before substrate addition. Acetylthiocholine and DTNB were added and incubated at RT for 30 min. Signal was detected by measuring absorbance at 405 nm. COX1 and COX2: enzyme stocks were diluted in assay buffer (40 mM Tris-HCl, 1×PBS, 0.5 mM Phenol, 0.01% Tween 20 and 10 nM Hematin) and allowed to equilibrate with compounds at RT for 30 min (binding incubation). Arachidonic acid (1.7 μM) and Ampliflu Red (2.5 μM) were prepared and dispended into a reaction plate. Plates were read immediately on a fluorimeter with the emission detection at 590 nm and excitation wavelength 544 nm. MAOA: enzyme and test compound were pre-incubated for 15 min at 37° C. before substrate addition. The reaction was initiated by addition of kynuramine and incubated at 37° C. for 30 min. The reaction was terminated by addition of NaOH. The amount of 4-hydroquinoline formed was determined through spectrofluorometric readout with the emission detection at 380 nm and excitation wavelength 310 nm. PDE3A and PDE4D2: enzyme and test compound were pre-incubated for 15 min at RT before substrate addition. cAMP substrate (at a concentration equal to EC80) was added and incubated at RT for 30 min. Enzyme reaction was terminated by addition of 9 mM IBMX. Signal was detected using the HitHunter® cAMP detection kit. Microplates were transferred to a PerkinElmer Envision™ instrument and read out as described for each assay. […] For enzyme activity assays, percentage inhibition was calculated using the following equation: […]

HRH2 = HRH2 (Homo sapiens, UniProt P25021); experiment: cAMP HRH2 Agonist; type: cell-based; settings: for Emax: read-out: Max response
Chain of HRH2 (P25021 whole entry): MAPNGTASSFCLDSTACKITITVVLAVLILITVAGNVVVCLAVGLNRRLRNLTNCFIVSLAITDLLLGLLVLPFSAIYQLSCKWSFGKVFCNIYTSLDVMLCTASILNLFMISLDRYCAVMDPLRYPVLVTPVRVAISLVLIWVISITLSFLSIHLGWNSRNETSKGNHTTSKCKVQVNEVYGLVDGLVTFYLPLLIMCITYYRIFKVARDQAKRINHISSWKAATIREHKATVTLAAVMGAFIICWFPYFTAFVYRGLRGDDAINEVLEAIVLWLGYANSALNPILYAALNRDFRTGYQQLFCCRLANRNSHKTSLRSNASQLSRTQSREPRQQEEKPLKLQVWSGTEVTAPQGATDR
Experimental: (§1) cAMP Hunter cell lines were expanded from freezer stocks. […] For Gi agonist determination, cells were incubated with sample in the presence of EC80 forskolin to induce response. For both conditions, media was aspirated from cells and replaced with 15 μL 2:1 HBSS/10 mM HEPES:cAMP XS+ Ab reagent. […] 5 μL of 4× sample was added to cells and incubated at 37° C. or room temperature (RT) for 30 or 60 min. Final assay vehicle concentration was 1%. […] Media was aspirated from cells and replaced with 10 μL 1:1 HBSS/HEPES:cAMP XS+ Ab reagent. […] For Gi coupled GPCRs, EC80 forskolin was included. […] Compound activity was analyzed using CBIS data analysis suite (ChemInnovation, CA).

CHRM3 = CHRM3 (Homo sapiens, UniProt P20309); experiment: Calcium Flux CHRM3 Agonist; settings: for Emax: read-out: Max response
Chain of CHRM3 (P20309 whole entry): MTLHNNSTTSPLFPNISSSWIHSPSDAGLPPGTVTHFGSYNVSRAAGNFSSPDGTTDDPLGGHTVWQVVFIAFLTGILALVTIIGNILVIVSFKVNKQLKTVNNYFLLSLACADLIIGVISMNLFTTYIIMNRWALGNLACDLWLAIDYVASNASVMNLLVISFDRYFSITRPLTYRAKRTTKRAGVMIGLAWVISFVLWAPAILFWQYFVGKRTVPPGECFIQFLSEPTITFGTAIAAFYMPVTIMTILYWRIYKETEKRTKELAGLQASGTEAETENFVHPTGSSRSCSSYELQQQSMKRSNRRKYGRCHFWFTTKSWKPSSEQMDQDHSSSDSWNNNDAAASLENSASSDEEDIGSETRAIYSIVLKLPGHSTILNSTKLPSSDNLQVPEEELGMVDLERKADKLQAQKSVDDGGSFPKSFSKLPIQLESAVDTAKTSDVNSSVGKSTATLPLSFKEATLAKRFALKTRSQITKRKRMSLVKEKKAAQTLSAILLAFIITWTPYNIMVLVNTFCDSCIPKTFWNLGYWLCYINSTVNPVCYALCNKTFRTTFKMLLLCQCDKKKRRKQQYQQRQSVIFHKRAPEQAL
Experimental: (§2) In vitro pharmacological profiling of compounds was done against 78 functional assays for 47 common off-targets (30) by Eurofins DiscoverX Corporation (Fremont, CA, USA) using their SAFETYscan E/IC50 ELECT service (Cat Ref 87-1003DR, Safety47 Panel Dose Response). […] Compounds were tested in a range of 10 concentrations, following a 3-fold serial dilution, starting from 10 μM. The assays were performed utilizing the PathHunter enzyme fragment complementation (EFC) technology, FLIPR®-based cellular screening assays, and KINOMEscan kinase binding assays.
(§3) Prior to testing, cells (10,000 cells/well) were expanded from freezer stocks and seeded into a total volume of 50 μL into black walled, clear-bottom, Poly-D-lysine coated 384-well microplates and incubated at 37° C. […] Assays were performed in 1× dye loading buffer consisting of 1× Dye (DiscoverX, Calcium No Wash^PLUS kit, Catalog No. 90-0091), 1× Additive A and 2.5 mM Probenecid in HBSS/20 mM HEPES. Probenecid was prepared fresh. Prior to testing, media was aspirated from cells and replaced with 25 μL dye loading buffer. Cells were incubated for 45 min at 37° C. and then 20 min at RT. For agonist determination, 25 μL of 2× compound in HBSS/20 mM HEPES was added using a FLIPR Tetra (MDS). For antagonist determination, cells were pre-incubated with sample followed by agonist challenge at the EC80 concentration. 25 μL of 2× sample was added and cells were incubated for 30 min at RT in the dark to equilibrate plate temperature. After incubation, antagonist determination was initiated by addition of 25 μL of 1× compound with 3×EC80 agonist using FLIPR. For both agonist and antagonist formats, activity was measure on a FLIPR Tetra (MDS). Calcium mobilization was monitored for 2 min with a 5 sec baseline read.
(§4) FLIPR read—Area under the curve, was calculated for the entire 2 min read. Compound activity was analysed using CBIS data analysis suite (ChemInnovation, CA).

ADRA1A = target: T2, ADRA1A (Homo sapiens, UniProt P35348); experiment: Calcium Flux ADRA1A Agonist; settings: for Emax: read-out: Max response
T2 sequence (P35348 1-466): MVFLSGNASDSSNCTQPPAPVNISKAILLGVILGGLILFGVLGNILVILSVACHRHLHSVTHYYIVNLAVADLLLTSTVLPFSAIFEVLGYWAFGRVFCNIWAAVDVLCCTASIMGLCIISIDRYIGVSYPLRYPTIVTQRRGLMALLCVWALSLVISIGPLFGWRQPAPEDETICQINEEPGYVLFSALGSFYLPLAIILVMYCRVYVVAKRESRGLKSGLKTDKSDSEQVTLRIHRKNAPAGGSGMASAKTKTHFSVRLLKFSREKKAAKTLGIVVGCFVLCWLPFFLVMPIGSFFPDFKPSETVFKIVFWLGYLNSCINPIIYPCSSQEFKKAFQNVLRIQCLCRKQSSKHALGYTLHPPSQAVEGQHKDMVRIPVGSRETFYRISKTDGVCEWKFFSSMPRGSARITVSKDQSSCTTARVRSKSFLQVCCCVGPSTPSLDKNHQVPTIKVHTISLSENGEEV
Experimental: as §2, §3, §4

OPRK1 = OPRK1 (Homo sapiens, UniProt P41145); experiment: cAMP OPRK1 Antagonist; settings: for Emax: read-out: Max response
Chain of OPRK1 (P41145 whole entry): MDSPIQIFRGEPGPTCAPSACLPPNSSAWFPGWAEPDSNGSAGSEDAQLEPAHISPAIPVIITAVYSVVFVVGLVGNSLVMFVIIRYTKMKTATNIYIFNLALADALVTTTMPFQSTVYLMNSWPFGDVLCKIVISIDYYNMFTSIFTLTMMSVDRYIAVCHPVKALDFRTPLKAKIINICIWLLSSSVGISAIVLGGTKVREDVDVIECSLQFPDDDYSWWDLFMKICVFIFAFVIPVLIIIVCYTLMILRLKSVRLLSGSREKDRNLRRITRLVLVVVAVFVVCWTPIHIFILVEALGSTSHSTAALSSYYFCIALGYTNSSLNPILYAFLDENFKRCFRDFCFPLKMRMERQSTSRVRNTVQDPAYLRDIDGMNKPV
Experimental: as §2
cAMP Hunter cell lines were expanded from freezer stocks. Prior to testing, cells were seeded in a total volume of 20 μL into white walled 384-well microplates and incubated at 37° C. cAMP modulation was determined using the DiscoverX HitHunter cAMP XS+ assay. For Gs agonist determination, cells were incubated with sample to induce response. For Gi agonist determination, cells were incubated with sample in the presence of EC80 forskolin to induce response. For both conditions, media was aspirated from cells and replaced with 15 μL 2:1 HBSS/10 mM HEPES:cAMP XS+ Ab reagent. Intermediate dilution of sample stocks was performed to generate 4× sample in assay buffer (containing 4×EC80 forskolin in the case of antagonist determination). 5 μL of 4× sample was added to cells and incubated at 37° C. or room temperature (RT) for 30 or 60 min. Final assay vehicle concentration was 1%. For antagonist determination, cells were pre-incubated with sample followed by agonist challenge at the EC80 concentration. Media was aspirated from cells and replaced with 10 μL 1:1 HBSS/HEPES:cAMP XS+ Ab reagent. 5 μL of 4× compound was added to the cells and incubated at 37° C. or RT for 30 min. 5 μL of 4×EC80 agonist was added to the cells and incubated at 37° C. or RT for 30 or 60 min. For Gi coupled GPCRs, EC80 forskolin was included. […] Microplates were read following signal generation with a PerkinElmer Envision™ instrument for chemiluminescent signal detection. Compound activity was analyzed using CBIS data analysis suite (ChemInnovation, CA). For Gs agonist mode assays, percentage activity was calculated using the following equation:

ADRB2 = ADRB2 (Homo sapiens, UniProt P07550); experiment: cAMP ADRB2 Antagonist; type: cell-based; settings: for Emax: read-out: Max response
Chain of ADRB2 (P07550 whole entry): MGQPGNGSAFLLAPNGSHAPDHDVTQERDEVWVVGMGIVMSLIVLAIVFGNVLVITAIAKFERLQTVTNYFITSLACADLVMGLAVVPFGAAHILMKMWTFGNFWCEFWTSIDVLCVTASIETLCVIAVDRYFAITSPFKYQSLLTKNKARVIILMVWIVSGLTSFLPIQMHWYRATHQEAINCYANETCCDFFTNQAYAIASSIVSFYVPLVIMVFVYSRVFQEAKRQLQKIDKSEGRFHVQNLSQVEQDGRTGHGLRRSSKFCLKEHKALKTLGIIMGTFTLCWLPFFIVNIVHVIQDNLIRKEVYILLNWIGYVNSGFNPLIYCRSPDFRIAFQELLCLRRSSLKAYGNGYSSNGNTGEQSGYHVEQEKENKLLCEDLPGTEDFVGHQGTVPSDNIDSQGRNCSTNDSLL
Experimental: as §1

ADRB1 = ADRB1 (Homo sapiens, UniProt P08588); experiment: cAMP ADRB1 Antagonist; type: cell-based; settings: for Emax: read-out: Max response
Chain of ADRB1 (P08588 whole entry): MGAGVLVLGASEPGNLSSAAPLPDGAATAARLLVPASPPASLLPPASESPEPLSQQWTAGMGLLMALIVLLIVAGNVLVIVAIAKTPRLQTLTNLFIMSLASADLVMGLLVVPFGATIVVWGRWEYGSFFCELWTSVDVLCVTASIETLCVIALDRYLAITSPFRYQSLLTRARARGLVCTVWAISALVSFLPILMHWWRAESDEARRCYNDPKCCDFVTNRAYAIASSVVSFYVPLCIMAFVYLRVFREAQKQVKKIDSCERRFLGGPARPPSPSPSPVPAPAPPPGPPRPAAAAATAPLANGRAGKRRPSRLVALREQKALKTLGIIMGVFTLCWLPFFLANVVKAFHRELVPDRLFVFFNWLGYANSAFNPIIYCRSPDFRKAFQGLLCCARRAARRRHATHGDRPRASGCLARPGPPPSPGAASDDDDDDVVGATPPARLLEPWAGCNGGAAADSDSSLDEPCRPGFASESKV
Experimental: as §1

HTR2B = HTR2B (Homo sapiens, UniProt P41595); experiment: Calcium Flux HTR2B Antagonist; settings: for Emax: read-out: Max response
Chain of HTR2B (P41595 whole entry): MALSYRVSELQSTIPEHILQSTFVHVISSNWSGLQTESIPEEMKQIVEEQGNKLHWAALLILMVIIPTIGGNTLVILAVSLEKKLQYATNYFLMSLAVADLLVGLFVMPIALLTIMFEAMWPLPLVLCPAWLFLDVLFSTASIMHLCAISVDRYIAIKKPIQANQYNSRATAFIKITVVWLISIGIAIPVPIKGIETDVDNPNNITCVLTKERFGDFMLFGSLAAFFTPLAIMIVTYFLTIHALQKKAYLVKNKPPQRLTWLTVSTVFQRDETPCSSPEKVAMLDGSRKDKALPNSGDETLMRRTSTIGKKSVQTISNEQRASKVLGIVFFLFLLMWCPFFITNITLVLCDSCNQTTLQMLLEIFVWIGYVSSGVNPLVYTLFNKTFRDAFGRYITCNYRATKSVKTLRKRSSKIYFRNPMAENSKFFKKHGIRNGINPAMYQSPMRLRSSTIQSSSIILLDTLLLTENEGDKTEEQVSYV
Experimental: as §2, §3, §4

Row | Compound | mean seizure duration (male NMRI mice; 30 mg/kg i.p.) | mean seizure duration (male NMRI mice; 100 mg/kg i.p.) | mean seizure duration (male NMRI mice; 200 mg/kg i.p.) | mean seizure duration (male NMRI mice; 300 mg/kg i.p.) | mean seizure duration (male NMRI mice; 600 mg/kg i.p.) | dose-response relationship (in words) (male NMRI mice) | EC50 (NMDAR (1A/2B)) | Emax (NMDAR (1A/2B)) | IC50 (COX2; Enzymatic COX2 Inhibitor) | EC50 (CHRM3) | Emax (CHRM3) | EC50 (ADRA1A) | Emax (ADRA1A) | IC50 (OPRK1) | Emax (OPRK1) | IC50 (HTR2B) | Emax (HTR2B) | also measured
1 | CC(C)(C)c1ccc(C#CC(O)c2ccccc2)cc1 (racemic) [Compound 3.3, rac-3-(4-(tert-butyl)phenyl)-1-phenylprop-2-yn-1-ol] | 9.5 s | 7.7 s | 1.1 s | 0 s | 1.00 s | displayed a dose-response relationship | > 10 µM | 0% | > 10 µM | > 10 µM | 0% | > 10 µM | 0.6% | > 10 µM | 8.9% | > 10 µM | 0% | Emax (COX2): 0%; EC50 (HRH2): > 10 µM; Emax (HRH2): 2.2%; IC50 (ADRB2): > 10 µM; Emax (ADRB2): 0%; IC50 (ADRB1): > 10 µM; Emax (ADRB1): 2.2%
2 | Clc1cccc(C#Cc2n[nH]c3ncccc23)c1 [Compound 10.1, 3-((3-chlorophenyl)ethynyl)-1H-pyrazolo[3,4-b]pyridine] | 5.5 s | 6.0 s | 8.5 s | 3.0 s | 0.8 s | displayed a dose-response relationship | > 10 µM | 0% | > 10 µM | > 10 µM | 2.2% | > 10 µM | 0.6% | > 10 µM | 0% | > 10 µM | 8.8% | mean seizure duration (male NMRI mice; 10 mg/kg i.p.): 6.2 s; mean seizure duration (male NMRI mice; 400 mg/kg i.p.): 1.2 s; Emax (COX2; Enzymatic COX2 Inhibitor): 0%; Emax (HRH2; cAMP HRH2 Agonist): 0.4%; EC50 (HRH2; cAMP HRH2 Agonist, read-out: RC50, result type EC50): > 10 µM; Emax (ADRB2; cAMP ADRB2 Antagonist): 39.9%; IC50 (ADRB2; cAMP ADRB2 Antagonist, read-out: RC50, result type IC50): > 10 µM; Emax (ADRB1; cAMP ADRB1 Antagonist): 40.3%; IC50 (ADRB1; cAMP ADRB1 Antagonist, read-out: RC50, result type IC50): > 10 µM
